According to patent publication US5817652A, “Hypolipidaemic condensed 1,4-thiazepines” (Glaxo Wellcome Inc., priority 1993, dated 1998):
Where a name gives a salt, the structure may show the parent alone.

System: rat distal ileal brush border membrane vesicles
Experiment: In vitro inhibition of bile acid uptake (sodium-dependent 3H taurocholate uptake)
Type: biochemical
Details: active (sodium-dependent) 3H taurocholate uptake, 30 seconds at 24° C., pH 7.4
Protocol: In vitro inhibition of bile acid uptake
Freshly prepared rat distal ileal brush border membrane vesicles (about […] vesicle protein) were incubated for 30 seconds at 24° C. in an incubation mixture comprising […] ^3 H taurocholate, 100 mM NaCl (or KCl) and 80 mM mannitol in 20 mM Herpes Tris pH 7.4. Each test compound was dissolved in ethanol (or water) and then diluted with incubation mixture to an ethanol concentration of not more than 1% v/v. The incubation was terminated by rapid dilution and filtration and the filter washed with an ice-cold isotonic sodium-free buffer.
The uptake of ^3 H taurocholate was measured by the radioactivity remaining on the filter and converted to pmoles/mg vesicle protein. The active, ie sodium-dependent, uptake was obtained by subtracting the passive uptake measured in 100 mM KCl from the total uptake measured in 100 mM NaCl. The active uptake for each test compound was compared with a control active uptake and the results expressed as % inhibition of bile acid uptake.

Structure (SMILES): COc1ccc2c(c1)S(=O)(=O)CC1(CCCCC1)NC2c1ccccc1 (racemic) [Example 11, (±)-2,3,4,5-tetrahydro-8-methoxy-5-phenylspiro(1,4-benzothiazepine-3,1-cyclohexane) 1,1-dioxide]
- % inhibition of bile acid uptake (0.3 μM compound): 15%
- % inhibition of bile acid uptake (1 μM compound): 33%
- % inhibition of bile acid uptake (3 μM compound): 36%
- % inhibition of bile acid uptake (10 μM compound): 64%

Structure (SMILES): O=S1(=O)CC2(CCCCC2)NC(c2ccccc2)c2ccccc21 (racemic) [Example 20, (±)-2,3,4,5-Tetrahydro-5-phenylspiro(1,4-benzothiazepine-3,1'-cyclohexane) 1,1-dioxide]
- % inhibition of bile acid uptake (10 μM compound): 27%

Structure (SMILES): CCC(=O)CC1(CC)CS(=O)(=O)c2ccccc2C(c2ccccc2)N1 (mixture of isomers) [Example 4, (±)-trans-1-(3-ethyl-2,3,4,5-tetrahydro-5-phenyl-1,4-benzothiazepin-3-yl)-2-butanone S,S-dioxide]
- % inhibition of bile acid uptake (0.3 μM compound): 28%
- % inhibition of bile acid uptake (1 μM compound): 54%
- % inhibition of bile acid uptake (3 μM compound): 77%
- % inhibition of bile acid uptake (10 μM compound): 90%

Structure (SMILES): CCC(=O)CC1(CC)CS(=O)(=O)c2cc(OC)ccc2C(c2ccccc2)N1 (mixture of isomers) [Example 5, (±)-trans-1-(3-ethyl-2,3,4,5-tetrahydro-8-methoxy-5-phenyl-1,4-benzothiazepin-3-yl)-2-butanone S,S-dioxide hydrochloride 1,1 hydrate]
- % inhibition of bile acid uptake (0.3 μM compound): 60%
- % inhibition of bile acid uptake (1 μM compound): 83%
- % inhibition of bile acid uptake (3 μM compound): 94%
- % inhibition of bile acid uptake (10 μM compound): 98%

Structure (SMILES): CCOCCC1(CC)CS(=O)(=O)c2ccccc2C(c2ccccc2)N1 (racemic) [Example 7, (±)-trans-3-(ethoxyethyl)-3-ethyl-2,3,4,5-tetrahydro-5-phenyl-1,4-benzothiazepine 1,1-dioxide hydrochloride hemihydrate]
- % inhibition of bile acid uptake (10 μM compound): 53%

Structure (SMILES): CCC1(/C=C/C(C)=O)CS(=O)(=O)c2ccccc2C(c2ccccc2)N1 (mixture of isomers) [Example 10, (±)-trans-(E)-4-(3-ethyl-2,3,4,5-tetrahydro-5-phenyl-1,4-benzothiazepin-3-yl)-3-buten-2-one 1,1-dioxide]
- % inhibition of bile acid uptake (10 μM compound): 69%

Structure (SMILES): CCC(=O)CC1(CC)CS(=O)(=O)c2ccc(OC)cc2C(c2ccccc2)N1 (mixture of isomers) [Example 51, (±)-Trans-1-(3-Ethyl-2,3,4,5-tetrahydro-7-methoxy-5-phenyl-1,4-benzothiazepin-3-yl)-2-butanone S,S-dioxide hydrochloride]
- % inhibition of bile acid uptake (0.3 μM compound): 66%
- % inhibition of bile acid uptake (1 μM compound): 91%
- % inhibition of bile acid uptake (3 μM compound): 100%
- % inhibition of bile acid uptake (10 μM compound): 100%
